Source: publication PMC8923309, “Permeability evaluation of gemcitabine-CPP6 conjugates in Caco-2 cells” (ADMET & DMPK, 2020)
Numbered stars: 1 amine (or outer) side, 2 acyl side, 3 side chain; on linkers, the order of the positions; unused ones are H or OH. Ends that are not written are not given here. Peptide text beside a SMILES is read from it. * marks the point of attachment. X1 = O=c1nc(N*)ccn1[C@@H]1O[C@H](CO)[C@@H](O)C1(F)F; Suc = O=C(CCC(=O)[*:2])[*:1]

Key:
Caco-2 monolayer [1] = assay: Transport across Caco-2 monolayer (permeability assay); conditions: HPLC-UV; for sum of the CPP absorbed from the apical side and found in the basolateral chamber at the end of the experiment: 60 μM apical in HBSS pH 7.4, 37 °C, remainder retained in cells or degraded; for percentage of amount applied apically recovered in the basolateral compartment at 120 min / sum of the CPP absorbed from the apical side and found in the basolateral chamber at the end of the experiment: 120 min
Method: (§1) A monolayer of Caco-2 cells was established in a 12-well plate [11]. […] Firstly, filters were pre-wet with 0.1 mL of culture medium for 2 minutes. Cells were seeded in the apical side (0.5 mL of cells per well, cell density of 4.0 x 10^5 cells/mL). The basolateral compartment was filled with 1.5 mL of culture medium and plates were incubated for 6 h (5 % CO2 humidified atmosphere at 37 °C). Then, to remove non-adherent cells and reduce the risk of multilayer formation, the medium in the apical side was removed and replaced with fresh medium. Cells were maintained for 29 days, replacing the culture medium from both compartments every other day.
(§2) All the solutions used were pre-warmed to 37 °C. Culture medium was replaced with fresh medium 24 h prior the beginning of the experiment. Next, this culture medium was removed first from the basolateral and then from the apical compartment. The apical compartment was carefully washed and then filled with 0.5 mL of Hank’s Balanced Salt Solution (HBSS, pH 7.4) and the basolateral compartment was also filled with 1.5 mL of HBSS. […] All tested compounds were prepared in HBBS (60 μM) and added to the apical compartment. Throughout this assay, the final volume was 0.4 mL in the apical compartment and 1.2 mL in the basolateral chamber. At t = 0 min, 0.45 mL of the donor solution was added to the apical compartment and a sample (0.05 mL) was immediately taken. The plate was incubated (lid-covered) at 37 °C under gentle shaking (190 rpm). Every 30 min for the next 2 h, a sample of 0.6 mL was taken from the basolateral compartment and replaced with the same volume of HBSS.
(§3) The concentrations of the evaluated compound in the basolateral and apical compartments were determined by high-performance liquid chromatography (HPLC) (VWR International LCC, LaChrom Ultra, Pennsylvania, USA). Elution was performed with a variable gradient of acetonitrile (ACN) in water containing 0.05 % trifluoroacetic acid (TFA), at a 0.7 mL/min flow and detection at variable wavelength (243 nm for gemcitabine and 220 nm for peptides and conjugates).

Caco-2 monolayer [2] = tested on: Caco-2 monolayer
Method: as §1, §2, §3

Caco-2 cells = assay: MTT cytotoxicity assay (cell growth inhibition); format: cell-based; conditions: Homo sapiens, 72 h incubation, 0.1-100000 μM, absorbance 570 nm, triplicate
Method: Human colon adenocarcinoma cell line Caco-2 (passage 25-47, kindly provided by the Department of Biomedicine of the Faculty of Medicine of University of Porto, and previously acquired via ATCC) was routinely maintained in Dulbecco’s Modified Eagle’s Medium (DMEM) supplemented with 10 % fetal bovine serum (FBS), L-glutamine and antibiotics penicillin and streptomycin. Cells were cultured at 37 °C in a 5 % CO2 humidified atmosphere. Culturing medium was replaced every 2-3 days and cell subculture was conducted once a week by trypsinization (0.25 % trypsin-EDTA wt/vol, 5, min, 37, °C).
The cell growth inhibitory activity of gemcitabine in Caco-2 cells was assessed with the MTT assay. Briefly, a growth curve was traced to determine the best cell density for the assay. […] Finally, MTT solution was removed, DMSO (100 μL per well) was added to solubilize the formazan crystals formed by viable cells and absorbance was measured at 570 nm in an automated microplate reader (Sinergy HT, Biotek Instruments Inc, Vermont, USA). […]
Gemcitabine cytotoxicity results were compared with the untreated control (mean of values was set to 100 %) and expressed as mean ± SEM. The statistical significance between different gemcitabine concentrations was analyzed in GraphPad Prism 7 (San Diego, EUA) using one-way ANOVA (p<0.05).

[3] = design: method as in PMID 16807468; conditions: administered intravenously; rapid deamination by cytidine deaminase in serum; cited from earlier work
Description: Gemcitabine (Gem, dFdC or 2′,2′-difluoro-2′-deoxycytidine, Scheme 1) is a cytotoxic nucleoside analogue used as a chemotherapeutic drug.

[4] = Caco-2 monolayer (29 days, Transwell COL PTFE 0.4 μm), apical to basolateral, 60 μM in HBSS pH 7.4, 37 °C, 190 rpm

Row | Compound | percentage of amount applied apically recovered in the basolateral compartment at 120 min (Caco-2 monolayer [1]; [4]) | sum of the CPP absorbed from the apical side and found in the basolateral chamber at the end of the experiment (Caco-2 monolayer [1]; Caco-2 monolayer) [%] | other results
1 | CSCC[C@H](NC(=O)[C@@H](NC(=O)[C@@H]1CCCN1C(=O)[C@H](CC(C)C)NC(=O)[C@H](CCCCN)NC(=O)[C@H](Cc1c[nH]c2ccccc12)NC(=O)CCC(=O)Nc1ccn([C@@H]2O[C@H](CO)[C@@H](O)C2(F)F)c(=O)n1)C(C)C)C(N)=O [Gem-CPP6-1] ({X1-Suc}-WKLPVM-NH2) | 9% | – | –
2 | CSCC[C@H](NC(=O)[C@@H](NC(=O)[C@@H]1CCCN1C(=O)[C@H](CC(C)C)NC(=O)[C@H](CCCCN)NC(=O)CCC(=O)Nc1ccn([C@@H]2O[C@H](CO)[C@@H](O)C2(F)F)c(=O)n1)C(C)C)C(=O)N[C@@H](Cc1c[nH]c2ccccc12)C(N)=O [Gem-CPP6-2] ({X1-Suc}-KLPVMW-NH2) | Approximately 31% | – | extent of permeation relative to Gem-CPP6-1 and Gem-CPP6-3 conjugates (Caco-2 monolayer [2]): about 3 fold
3 | Nc1ccn([C@@H]2O[C@H](CO)[C@@H](O)C2(F)F)c(=O)n1 [Gemcitabine, 2′,2′-difluoro-2′-deoxycytidine] | 18% | – | IC50 (Caco-2 cells): 52.4 µM; half-life [3]: 8 to 17 min; percentage found in the basolateral side after 30 minutes (Caco-2 monolayer [1]; Caco-2 monolayer (29 days, Transwell COL PTFE 0.4 μm), apical to basolateral, 60 μM in HBSS pH 7.4, 37 °C, 190 rpm, 30 min): 3%; additional percentage of drug crossing the membrane from 90 min (plateau) until 120 min (Caco-2 monolayer [1]; Caco-2 monolayer, apical to basolateral, 60 μM in HBSS pH 7.4, 37 °C, between 90 and 120 min): 1%
4 | KLPVMW-NH2 [CPP6-2] | 40% | 84 | –
5 | WKLPVM-NH2 [CPP6-1] | 33% | 50 | –
6 | WVPTLK [CPP6-3] | 37% | 75 | –
